Test results as given in patent publication US20260132132A1, “3A,4,5,6-TETRAHYDRO-1 H-PYRAZOLO[3,4-C]PYRIDIN-7(7AH)-ONE DERIVATIVES AS FACTOR XIIA INHIBITORS” (KALVISTA PHARMACEUTICALS LIMITED, priority 2022, published 2026).

Tests used:
[1] = target: T1, Human Factor XIIa (hFXIIa) (Homo sapiens, UniProt P00748); test: Determination of Human Factor XIIa (hFXIIa) inhibition, fluorogenic substrate IC50 assay; assay type: biochemical; details: fluorogenic substrate H-DPro-Phe-Arg-AFC at Km, 25° C., read-out: Human FXIIa IC50
T1 construct: purchased Enzyme Research Laboratories
T1 sequence (P00748 373-615 limits assumed): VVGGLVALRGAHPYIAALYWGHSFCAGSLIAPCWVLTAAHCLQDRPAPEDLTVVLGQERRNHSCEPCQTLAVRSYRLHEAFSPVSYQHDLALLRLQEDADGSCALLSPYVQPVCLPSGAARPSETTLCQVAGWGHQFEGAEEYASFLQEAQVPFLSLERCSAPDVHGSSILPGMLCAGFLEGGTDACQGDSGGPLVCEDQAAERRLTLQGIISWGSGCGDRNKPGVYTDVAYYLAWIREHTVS
T1 sequence (P00748 20-372 partner limits assumed): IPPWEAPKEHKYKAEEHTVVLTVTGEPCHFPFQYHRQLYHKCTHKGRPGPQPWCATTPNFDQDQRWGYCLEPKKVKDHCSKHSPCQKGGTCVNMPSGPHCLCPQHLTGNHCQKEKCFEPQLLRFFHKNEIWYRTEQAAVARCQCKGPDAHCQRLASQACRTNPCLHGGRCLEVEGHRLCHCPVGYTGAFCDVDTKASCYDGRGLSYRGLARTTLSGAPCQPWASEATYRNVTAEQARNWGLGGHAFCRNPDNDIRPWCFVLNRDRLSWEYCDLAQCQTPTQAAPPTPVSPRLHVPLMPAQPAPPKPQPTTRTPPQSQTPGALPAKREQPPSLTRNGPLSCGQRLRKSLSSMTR
Protocol: Determination of Human Factor XIIa (hFXIIa) inhibition
The Km for the cleavage of the substrate by hFXIIa was determined by standard transformation of the Michaelis-Menten equation, with subsequent inhibition assays performed at substrate Km concentration.

[2] = target: FXa (Homo sapiens, UniProt P00742); test: Related protease inhibition: FXa, fluorogenic substrate; assay type: biochemical; details: fluorogenic substrate at Km, 25° C.; H1-H3 = % activity at 40 μM
Protocol: Human serine protease enzyme Plasma Kallikrein, KLK1, FXa, Plasmin, Thrombin and Trypsin were assayed for enzymatic activity using an appropriate fluorogenic substrate at Km concentration, FXIa at fixed substrate concentration of 100 μM and various concentrations of the test compound.

Chain of FXa (P00742 235-488 limits assumed): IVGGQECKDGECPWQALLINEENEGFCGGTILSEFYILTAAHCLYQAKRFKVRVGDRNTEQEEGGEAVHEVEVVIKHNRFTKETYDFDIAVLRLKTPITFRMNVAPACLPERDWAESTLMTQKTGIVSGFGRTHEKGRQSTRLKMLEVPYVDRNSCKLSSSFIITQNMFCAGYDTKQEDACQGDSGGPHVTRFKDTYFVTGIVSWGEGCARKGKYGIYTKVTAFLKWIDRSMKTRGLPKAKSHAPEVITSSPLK
Chain of FXa (P00742 41-179 partner limits assumed): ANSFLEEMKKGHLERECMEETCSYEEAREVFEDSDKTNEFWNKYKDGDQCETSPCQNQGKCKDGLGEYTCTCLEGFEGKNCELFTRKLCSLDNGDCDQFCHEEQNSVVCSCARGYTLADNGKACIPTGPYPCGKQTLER

Row | Structure (SMILES) | IC50 [1] [µM] | IC50 [2] [µM]
1 | Cc1ccncc1CNC(=O)c1nn(-c2cccc(Cl)c2)c2c1CCN(c1cccc(N3CCCCC3=O)c1)C2=O [Example 1287, 1-(3-chlorophenyl)-N-((4-methylpyridin-3-yl)methyl)-7-oxo-6-(3-(2-oxopiperidin-1-yl)phenyl)-4,5,6,7-tetrahydro-1H-pyrazolo[3,4-c]pyridine-3-carboxamide] | 0.3 to 1 | 10 to 40
2 | CCNC(=O)c1nn(-c2cncc(C)c2)c2c1CCN(c1ccc3c(c1)C(=O)N(C)CC3)C2=O [Example 2027, N-ethyl-6-(2-methyl-1-oxo-1,2,3,4-tetrahydroisoquinolin-7-yl)-1-(5-methylpyridin-3-yl)-7-oxo-4,5,6,7-tetrahydro-1H-pyrazolo[3,4-c]pyridine-3-carboxamide] | 3 to 10 | > 40
3 | Cc1cc(CNC(=O)CN2CCOc3ccc(N4CCc5c(C(=O)NCc6cc(C)n(C)n6)nn(-c6cccc(Cl)c6)c5C4=O)cc3C2=O)nn1C [Example 1383, 1-(3-chlorophenyl)-N-((1,5-dimethyl-1H-pyrazol-3-yl)methyl)-6-(4-(2-(((1,5-dimethyl-1H-pyrazol-3-yl)methyl)amino)-2-oxoethyl)-5-oxo-2,3,4,5-tetrahydrobenzo[f][1,4]oxazepin-7-yl)-7-oxo-4,5,6,7-tetrahydro-1H-pyrazolo[3,4-c]pyridine-3-carboxamide] | 0.01 to 0.1 | 3 to 10
4 | CCOC(=O)c1nn(-c2cccc(Cl)c2)c2c(=O)n(-c3ccc4c(c3)C(=O)N(CCO)CC4)c(C)nc12 [Example 3019, ethyl 1-(3-chlorophenyl)-6-(2-(2-hydroxyethyl)-1-oxo-1,2,3,4-tetrahydroisoquinolin-7-yl)-5-methyl-7-oxo-6,7-dihydro-1H-pyrazolo[4,3-d]pyrimidine-3-carboxylate] | 0.1 to 0.3 | 3 to 10
5 | Cc1nc2c(CNS(=O)(=O)C3CC3)nn(-c3cccc(Cl)c3)c2c(=O)n1-c1ccc2c(c1)CN(CCO)CC2 [Example 3007, N-[[1-(3-Chlorophenyl)-6-[2-(2-hydroxyethyl)-3,4-dihydro-1H-isoquinolin-7-yl]-5-methyl-7-oxopyrazolo[4,3-d]pyrimidin-3-yl]methyl]cyclopropanesulfonamide] | 0.3 to 1 | 3 to 10
6 | O=C(NCc1ncccc1F)c1nn(-c2cccc(Cl)c2)c2c1CCN(c1ccc3c(c1)CN(CCO)CC3)C2=O [Example 1130, 1-(3-chlorophenyl)-N-((3-fluoropyridin-2-yl)methyl)-6-(2-(2-hydroxyethyl)-1,2,3,4-tetrahydroisoquinolin-7-yl)-7-oxo-4,5,6,7-tetrahydro-1H-pyrazolo[3,4-c]pyridine-3-carboxamide] | 0.01 to 0.1 | 10 to 40
7 | CCNC(=O)c1nn(-c2ccc(C)cn2)c2c1CCN(c1ccc3c(c1)C(=O)N(C)CC3)C2=O [Example 2028, N-ethyl-6-(2-methyl-1-oxo-1,2,3,4-tetrahydroisoquinolin-7-yl)-1-(5-methylpyridin-2-yl)-7-oxo-4,5,6,7-tetrahydro-1H-pyrazolo[3,4-c]pyridine-3-carboxamide] | 10 to 40 | > 40
8 | CCNC(=O)c1nn(-c2cccc(Cl)c2)c2c1CCN(c1cccc(N3CCCOC3=O)c1)C2=O [Example 1363, 1-(3-chlorophenyl)-N-ethyl-7-oxo-6-(3-(2-oxo-1,3-oxazinan-3-yl)phenyl)-4,5,6,7-tetrahydro-1H-pyrazolo[3,4-c]pyridine-3-carboxamide] | 3 to 10 | > 40
9 | Cc1ccncc1CNC(=O)c1nn(-c2cccc(Cl)c2)c2c1CCN(c1ccc3c(c1)CN(CCO)CC31CC1)C2=O [Example 1144, 1-(3-Chlorophenyl)-6-(2′-(2-hydroxyethyl)-2′,3′-dihydro-1′H-spiro[cyclopropane-1,4′-isoquinolin]-7′-yl)-N-((4-methylpyridin-3-yl)methyl)-7-oxo-4,5,6,7-tetrahydro-1H-pyrazolo[3,4-c]pyridine-3-carboxamide] | 0.01 to 0.1 | 1 to 3
10 | Cc1cncc(CNC(=O)c2nn(-c3cccc(Cl)c3)c3c2CCN(c2ccc4c(c2)CN(CCO)CC4)C3=O)c1 [Example 1126, 1-(3-chlorophenyl)-6-(2-(2-hydroxyethyl)-1,2,3,4-tetrahydroisoquinolin-7-yl)-N-((5-methylpyridin-3-yl)methyl)-7-oxo-4,5,6,7-tetrahydro-1H-pyrazolo[3,4-c]pyridine-3-carboxamide] | 0.01 to 0.1 | 10 to 40
11 | COc1cnccc1CNC(=O)c1nn(-c2cccc(Cl)c2)c2c1CCN(c1ccc3c(c1)CN(CCO)CC3)C2=O [Example 1172, 1-(3-chlorophenyl)-6-(2-(2-hydroxyethyl)-1,2,3,4-tetrahydroisoquinolin-7-yl)-N-((3-methoxypyridin-4-yl)methyl)-7-oxo-4,5,6,7-tetrahydro-1H-pyrazolo[3,4-c]pyridine-3-carboxamide] | 0.01 to 0.1 | –

Further lines, results first:

Row | IC50 [1] [µM] | IC50 [2] [µM] | Structure (SMILES)
12 | 0.3 to 1 | > 40 | C[C@H](NC(=O)c1nn(-c2cccc(Cl)c2)c2c1CCN(c1ccc3c(c1)C(=O)N(C)CC3)C2=O)C(=O)O [Example 1391, (1-(3-chlorophenyl)-6-(2-methyl-1-oxo-1,2,3,4-tetrahydroisoquinolin-7-yl)-7-oxo-4,5,6,7-tetrahydro-1H-pyrazolo[3,4-c]pyridine-3-carbonyl)-L-alanine]
13 | 0.3 to 1 | > 40 | COCCN1CCc2ccc(N3CCc4c(C(=O)NCC5CC5)nn(-c5cccc(Cl)c5)c4C3=O)cc2C1=O [Example 1261, 1-(3-chlorophenyl)-N-(cyclopropylmethyl)-6-(2-(2-methoxyethyl)-1-oxo-1,2,3,4-tetrahydroisoquinolin-7-yl)-7-oxo-4,5,6,7-tetrahydro-1H-pyrazolo[3,4-c]pyridine-3-carboxamide]
14 | 0.3 to 1 | – | O=C1CC[C@H](CN2CCc3ccc(N4CCc5c(C(=O)NCC6CC6)nn(-c6cccc(Cl)c6)c5C4=O)cc3C2)N1 [Example 1120, (R)-1-(3-chlorophenyl)-N-(cyclopropylmethyl)-7-oxo-6-(2-((5-oxopyrrolidin-2-yl)methyl)-1,2,3,4-tetrahydroisoquinolin-7-yl)-4,5,6,7-tetrahydro-1H-pyrazolo[3,4-c]pyridine-3-carboxamide]
15 | 3 to 10 | – | CN1Cc2ccc(N3CCc4c(C(=O)NCC5CC5)nn(-c5cccc(Cl)c5)c4C3=O)cc2C1=O [Example 1192, 1-(3-chlorophenyl)-N-(cyclopropylmethyl)-6-(2-methyl-3-oxoisoindolin-5-yl)-7-oxo-4,5,6,7-tetrahydro-1H-pyrazolo[3,4-c]pyridine-3-carboxamide]
16 | 0.3 to 1 | – | CN1CCc2ccc(N3CCc4c(C(=O)NCC56CCC(CO)(C5)O6)nn(-c5cccc(Cl)c5)c4C3=O)cc2C1=O (centres unmarked) [Example 1280, 1-(3-chlorophenyl)-N-((4-(hydroxymethyl)-5-oxabicyclo[2.1.1]hexan-1-yl)methyl)-6-(2-methyl-1-oxo-1,2,3,4-tetrahydroisoquinolin-7-yl)-7-oxo-4,5,6,7-tetrahydro-1H-pyrazolo[3,4-c]pyridine-3-carboxamide]
17 | 3 to 10 | – | CN(C)C(=O)c1cc(N2CCc3c(C(=O)NCC4CC4)nn(-c4cccc(Cl)c4)c3C2=O)ccn1 [Example 1278, 1-(3-chlorophenyl)-N-(cyclopropylmethyl)-6-(2-(dimethylcarbamoyl)pyridin-4-yl)-7-oxo-4,5,6,7-tetrahydro-1H-pyrazolo[3,4-c]pyridine-3-carboxamide]
